# Measured values: patent US20240398781A1, “SPIROCYCLIC CYCLIC MODULATORS OF CHOLESTEROL BIOSYNTHESIS AND THEIR USE FOR PROMOTING REMYELINATION” (GENENTECH, INC., priority 2021, published 2024)
# Like-named read-outs stand apart in the source and are kept apart here.
# Columns and labels:
# [1] = target: human emopamil binding protein and human 7-dehydrocholesterol reductase co-expressing cells (hEBP-DHCR7 membrane) (Homo sapiens (Human), UniProt Q15125); assay: Radioligand filter binding assay on hEBP-DHCR7 membrane; details: [3H]-(S)-6-(2-Methyl-3-(6-(trifluoromethyl)pyridin-3-yl)propyl)-2-thia-6-azaspiro[3.4]octane 2,2-dioxide radioligand, HEK293 membrane co-expressing hEBP and hDHCR7
# Outline: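 HEK293 cells transiently co-expressing human EBP and DHCR7 supplied whole-cell membranes (10 μg/well), incubated 3 h at 22 °C with [3H]-labelled spiro-octane dioxide ligand (added at 25 nM) and compound (0.06-5000 nM final, 8 doses, n=2). Bound ligand was collected on PEI-treated GF/B filters and counted by scintillation. IC50 was Hill-fitted from % inhibition and reported as Ki.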
# [2] = system: EBP (zymostenol accumulation in EpiSC-derived OPCs); assay: GC/MS-based sterol profiling, zymostenol accumulation in OPCs; assay type: cell-based, mouse; details: EpiSC-derived OPCs, 24 hr treatment, 8 doses from 0.15 nM to 333 nM, read-out: Zymostenol GCMS EC50
# Outline: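 EpiSC-derived OPCs (100,000/well) were treated 24 h in N2B27 without growth factors. Sterols were TMS-derivatized and analysed by GC/MS full-scan EI, quantified against cholesterol-d7. Zymostenol was normalized to the level after 24 h with 100 nM positive control reference.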
# EpiSC-derived OPCs = assay: In vitro phenotypic screening of OPCs (MBP staining, high-content imaging); assay type: cell-based, mouse; details: percentage of MBP+ oligodendrocytes, 3 days, 0.5 nM to 1000 nM, read-out: OPC EC50
# Protocol: To assess effects of treatments on OPCs, all treatments were assayed in two or more independent platings of epiblast stem cell-derived OPCs (EpiSC). EpiSC-derived OPCs were obtained using in vitro differentiation protocols and culture conditions described previously (Najm et al, 2011, Nature Methods). OPCs were expanded and frozen down in aliquots. OPCs were thawed into growth conditions for at least one passage before use in further assays.
# EpiSC-derived OPCs were grown and expanded in poly-L-ornithine (PO) and laminin-coated flasks in N2B27 media (DMEM/F12 (Gibco), N2-MAX (R&D Systems), B-27 (ThermoFisher), and GlutaMax (Gibco)) supplemented with FGF2 ([…], R&D systems, 233-FB-025) and PDGF-AA ([…], R&D systems, 233-AA-050) before harvesting for experiments. The cells were seeded onto poly-L-ornithine or poly-D-lysine coated CellCarrier Ultra plates (PerkinElmer) coated with laminin (Sigma, L2020) at a density of 150,000/cm^2 in N2B27 media without growth factors. For dose-response testing, a 1000× compound stock in dimethyl sulphoxide (DMSO) was added to assay plates, resulting in 8-point dose curves with final concentrations between 1000 nM and 0.5 nM. Positive controls and DMSO vehicle controls were included in each assay plate. Cells were incubated under standard conditions (37° C., 5% CO2) for 3 days and fixed with 4% paraformaldehyde (PFA) in phosphate buffered saline (PBS) for 20 min. Fixed plates were washed with PBS, permeabilized with 0.1% Triton X-100, and blocked with 10% donkey serum (v/v) in PBS for 40 min. Then, cells were labelled with MBP antibodies (Abcam, ab7349; 1:200) for 2 h at room temperature, washed with PBS, and stained with Alexa Fluor conjugated secondary antibodies (1:500) for 45 min. Nuclei were visualized by DAPI staining (Sigma; 1 μg/ml), followed by further PBS washes.
# Cells and cell culture plates were imaged on the Operetta High Content Imaging and Analysis system (PerkinElmer). Analysis (PerkinElmer Harmony and Columbus software) began by identifying intact nuclei stained by DAPI. The peri-nuclear region of each cell was then cross-referenced with the mature myelin protein (MBP) stain to identify oligodendrocyte nuclei, and from this the percentage of oligodendrocytes was calculated. EC50 values were calculated using The Levenberg-Marquardt algorithm to fit a Hill equation to dose-response data (0.5 nM to 1000 nM).
# Sequence of human emopamil binding protein and human 7-dehydrocholesterol reductase co-expressing cells (hEBP-DHCR7 membrane) (Q15125 whole entry): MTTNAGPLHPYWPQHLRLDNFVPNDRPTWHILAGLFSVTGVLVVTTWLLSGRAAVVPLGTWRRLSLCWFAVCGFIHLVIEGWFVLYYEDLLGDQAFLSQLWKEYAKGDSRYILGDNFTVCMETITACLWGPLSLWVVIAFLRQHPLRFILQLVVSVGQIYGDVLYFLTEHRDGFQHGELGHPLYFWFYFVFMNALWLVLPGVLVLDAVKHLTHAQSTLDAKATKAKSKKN
SMILES,Ki [1],"EC50 ([2]; Mus musculus, 24 h)","EC50 (EpiSC-derived OPCs; Mus musculus, 72 h)",EC50 (EpiSC-derived OPCs),EC50 [2]
"O=S1(=O)CC2(CCN([C@@H]3CCC[C@H](c4ccc(C(F)(F)F)nc4)C3)CC2)C1 (single isomer, unassigned) [56A*]",61 nM,30 nM,270 nM,,
"O=S1(=O)CC2(CCN([C@H]3CCC[C@H](c4ccc(C(F)(F)F)nc4)C3)CC2)C1 (single isomer, unassigned) [56B*]",170 nM,320 nM,870 nM,,
"O=S1(=O)CC2(CCN([C@H]3CCC[C@@H](c4ccc(C(F)(F)F)nc4)C3)CC2)C1 (single isomer, unassigned) [56C*]",140 nM,19 nM,76 nM,,
"O=S1(=O)CC2(CCN([C@@H]3CCC[C@@H](c4ccc(C(F)(F)F)nc4)C3)CC2)C1 (single isomer, unassigned) [56D*]",65 nM,150 nM,690 nM,,
"O=S1(=O)CC2(CCN([C@@H]3CC[C@@H](c4ccc(C(F)(F)F)nc4)C3)CC2)C1 (single isomer, unassigned) [57A*]",160 nM,24 nM,,65 nM,
"O=S1(=O)CC2(CCN([C@@H]3CC[C@@H](c4ccc(C(F)(F)F)nc4)C3)CC2)C1 (single isomer, unassigned) [57B*]",200 nM,,,160 nM,44 nM
"O=S1(=O)CC2(CCN([C@@H]3CC[C@H](c4ccc(C(F)(F)F)nc4)C3)CC2)C1 (single isomer, unassigned) [57C*]",120 nM,16 nM,53 nM,,
"O=S1(=O)CC2(CCN([C@H]3CC[C@H](c4ccc(C(F)(F)F)nc4)C3)CC2)C1 (single isomer, unassigned) [57D*]",150 nM,18 nM,130 nM,,
"CC(C)n1nc(C(F)(F)F)cc1[C@H]1CCC[C@@H](N2CCC3(CC2)CS(=O)(=O)C3)C1 (single isomer, unassigned) [78C*]",790 nM,28 nM,273 nM,,
"O=S1(=O)CC2(CCN(C3CC[C@H](c4nc(-c5cccc(C(F)(F)F)n5)nn4C4CC4)C3)CC2)C1 (stereo in doubt) [42C*, 7-((1S,3S)-3-(1-Cyclopropyl-3-(6-(trifluoromethyl)pyridin-2-yl)-1H-1,2,4-triazol-5-yl)cyclopentyl)-2-thia-7-azaspiro[3.5]nonane 2,2-dioxide]",1180 nM,88 nM,190 nM,,
"O=S1(=O)CC2(CCN(C3CC[C@H](c4nc(-c5cccc(C(F)(F)F)n5)nn4C4CC4)C3)CC2)C1 (stereo in doubt) [42D*, 7-((1R,3S)-3-(1-Cyclopropyl-3-(6-(trifluoromethyl)pyridin-2-yl)-1H-1,2,4-triazol-5-yl)cyclopentyl)-2-thia-7-azaspiro[3.5]nonane 2,2-dioxide]",670 nM,45 nM,120 nM,,
"CCn1nc(-c2ccc(C(F)(F)F)nc2)nc1[C@H]1CC[C@H](N2CCC3(CC2)CS(=O)(=O)C3)CC1 (stereo in doubt) [43A*, (trans)-7-(-4-(1-Ethyl-3-(6-(trifluoromethyl)pyridin-3-yl)-1H-1,2,4-triazol-5-yl)cyclohexyl)-2-thia-7-azaspiro[3.5]nonane 2,2-dioxide]",125 nM,8 nM,27 nM,,
"CCn1nc(-c2ccc(C(F)(F)F)nc2)nc1[C@H]1CC[C@@H](N2CCC3(CC2)CS(=O)(=O)C3)CC1 (stereo in doubt) [43B*, (cis)-7-(-4-(1-ethyl-3-(6-(trifluoromethyl)pyridin-3-yl)-1H-1,2,4-triazol-5-yl)cyclohexyl)-2-thia-7-azaspiro[3.5]nonane 2,2-dioxide]",510 nM,80 nM,160 nM,,
"O=S1(=O)CC2(CCN([C@H]3CC[C@@H](c4ccc(C(F)(F)F)nc4)CC3)CC2)C1 [81B*, 7-((1s,4s)-4-(6-(Trifluoromethyl)pyridin-3-yl)cyclohexyl)-2-thia-7-azaspiro[3.5]nonane 2,2-dioxide]",470 nM,42 nM,270 nM,,
"O=S1(=O)CCC2(CCN([C@H]3CC[C@H](c4ccc(C(F)(F)F)cn4)CC3)C2)CC1 [84B*, 2-((1s,4s)-4-(5-(Trifluoromethyl)pyridin-2-yl)cyclohexyl)-8-thia-2-azaspiro[4.5]decane 8,8-dioxide]",69 nM,27 nM,130 nM,,

# These reach a lower Ki [1]. Values come first.
Ki [1],"EC50 ([2]; Mus musculus, 24 h)","EC50 (EpiSC-derived OPCs; Mus musculus, 72 h)",EC50 (EpiSC-derived OPCs),EC50 [2],SMILES
31 nM,7.5 nM,53 nM,,,"CC(C)n1nc(C(F)(F)F)cc1[C@@H]1CCC[C@H](N2CCC3(C2)CS(=O)(=O)C3)C1 (single isomer, unassigned) [61C*]"
41 nM,5.8 nM,22 nM,,,"O=S1(=O)CC[C@@]2(CCCN([C@H]3CC[C@H](c4ccc(C(F)(F)F)cn4)CC3)C2)C1 (single isomer, unassigned) [68B*]"
24 nM,2.1 nM,7.5 nM,,,"O=S1(=O)CC[C@@]2(CCCN([C@H]3CC[C@@H](c4cc(C(F)(F)F)nn4C4CC4)CC3)C2)C1 (single isomer, unassigned) [69A*]"
27 nM,6 nM,44 nM,,,"O=S1(=O)CC[C@]2(CCCN([C@H]3CC[C@@H](c4cc(C(F)(F)F)nn4C4CC4)CC3)C2)C1 (single isomer, unassigned) [69C*]"
26 nM,22 nM,140 nM,,,"CC(C)n1nc(C(F)(F)F)cc1[C@@H]1CCC[C@H](N2CCC3(CC2)CS(=O)(=O)C3)C1 (single isomer, unassigned) [78B*]"
37 nM,19 nM,124 nM,,,"CC(C)n1nc(C(F)(F)F)cc1[C@H]1CCC[C@H](N2CCC3(CC2)CS(=O)(=O)C3)C1 (single isomer, unassigned) [78D*]"
22 nM,4.4 nM,7.3 nM,,,"CC(C)n1nc(-c2ccc(C(F)(F)F)cc2)nc1[C@H]1CCC(N2CCC3(CC2)CS(=O)(=O)C3)C1 (stereo in doubt) [Compound 58A, 7-((1R,3S)-3-(1-Isopropyl-3-(4-(trifluoromethyl)phenyl)-1H-1,2,4-triazol-5-yl)cyclopentyl)-2-thia-7-azaspiro[3.5]nonane 2,2-dioxide]"
21 nM,2.3 nM,3.4 nM,,,"CC(C)n1nc(-c2ccc(C(F)(F)F)cc2)nc1[C@H]1CCC(N2CCC3(CC2)CS(=O)(=O)C3)C1 (stereo in doubt) [Compound 58B, 7-((1S,3S)-3-(1-isopropyl-3-(4-(trifluoromethyl)phenyl)-1H-1,2,4-triazol-5-yl)cyclopentyl)-2-thia-7-azaspiro[3.5]nonane 2,2-dioxide]"
14.8 nM,4.9 nM,17 nM,,,"O=S1(=O)CC2(CCN([C@H]3CC[C@@H](c4ccc(C(F)(F)F)cc4)C3)C2)C1 [Compound 1A, 6-((1S,3R)-3-(4-(trifluoromethyl)phenyl)cyclopentyl)-2-thia-6-azaspiro[3.4]octane 2,2-dioxide]"
11 nM,1.4 nM,1.8 nM,,,"O=S1(=O)CC2(CCN([C@@H]3CC[C@H](c4ccc(C(F)(F)F)cc4)C3)C2)C1 [Compound 1C, 6-((1R,3S)-3-(4-(trifluoromethyl)phenyl)cyclopentyl)-2-thia-6-azaspiro[3.4]octane 2,2-dioxide]"
15 nM,4.9 nM,18 nM,,,"O=S1(=O)CC2(CCN([C@H]3CC[C@H](c4ccc(C(F)(F)F)cc4)C3)C2)C1 [Compound 1D, 6-((1S,3S)-3-(4-(trifluoromethyl)phenyl)cyclopentyl)-2-thia-6-azaspiro[3.4]octane 2,2-dioxide]"
